The values that follow come from US11236055B2 (Venenum Biodesign, LLC, priority 2016, dated 2022).

SMILES strings stand for the structures. Read-outs that look alike come from different tables or passages of the source. Where only a bound is given, the exact number is not on record here.

The target in one series is T1, mouse TGR5 receptor (Mus musculus, UniProt Q80SS6).
T1 construct: expressed in transfected cells; host or cells: HEK293-EBNA (293 c18, ATCC CRL10852), Hygromycin B selection
T1 sequence (Q80SS6 1-329): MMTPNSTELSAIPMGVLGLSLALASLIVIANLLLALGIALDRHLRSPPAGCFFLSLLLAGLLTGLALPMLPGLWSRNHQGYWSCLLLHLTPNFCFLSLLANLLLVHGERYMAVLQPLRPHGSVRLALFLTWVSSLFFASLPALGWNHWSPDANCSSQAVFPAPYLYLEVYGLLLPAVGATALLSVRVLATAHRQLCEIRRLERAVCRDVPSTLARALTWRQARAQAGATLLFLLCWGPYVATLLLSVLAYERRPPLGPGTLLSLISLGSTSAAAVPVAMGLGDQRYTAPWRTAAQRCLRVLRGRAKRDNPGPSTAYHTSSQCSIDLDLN
In words: Mouse TGR5 cAMP production assay (luminescent, DiscoveRx cAMP XS+). Type of series: cell-based. Particulars: HEK293-EBNA cells overexpressing mouse TGR5, luminescent cAMP XS+; coded A-D; read-out: Mouse TGR5 Lum. cAMP Activity (EC50). The method, boiled down: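 HEK293-EBNA cells stably expressing mouse TGR5 were suspended in serum-free DMEM with 500 μM IBMX and preincubated 20 min with cAMP antibody. They were then exposed to half-log compound dilutions for 1 h at room temperature. cAMP measured by enzyme-fragment complementation luminescence after overnight incubation; EC50 derived.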

Series [1] can be described thus: Absorption vs. first pass metabolism: Cmax with and without 1-aminobenzotriazole (ABT) pre-treatment. Type of series: in vivo, mouse. Particulars: ICR, mouse, plasma; lean mice receiving ABT (150 mg/kg) 2 h before compound, 10 mg/kg oral. Here is the method:
Absorption Vs. First Pass Metabolism
In this study, the absorption was examined as compared to first pass metabolism of the compounds of the present invention. ICR mice (Hilltop) were pre-treated with 1-aminobenzotriazole (ABT), a nonselective inhibitor of cytochrome P450 enzymes to inhibit Cyp450-mediated degradation of the compounds in liver.
ABT was administered at 150 mg/kg in 5 mL/kg of 0.04% ethanol in 0.5% methyl cellulose (w/v) by oral gavage, 2 hours prior to test compound administration. The compounds 20AA and 20AC were administered by oral gavage at 10 mg/kg in 10 mL/kg of 20% PEG400/80% (0.5% (w/v) CMC containing 0.25% (v/v) Tween 80) (v/v), 2 hours after the ABT treatment. Blood was collected via orbital bleeding at predose, 0.25, 0.5, 1, 2, and 4 hours post-dose and the quantification of compound levels in plasma was accomplished by means of LC-MS/MS analysis as described in Example 59. Reference compound “Propranolol” that is known to be metabolized by Cyp450 was used as a positive control.
FIG. 4 depicts the Cmax (nM) of the compounds of the present invention with and without ABT pre-treatment.

Series [2] is described as follows: Portal vein versus systemic pharmacokinetics in hepatic portal vein cannulated rats. The series is classed as in vivo, rat. Particulars: portal vein cannulated male CD (SD) rats, 10 mg/kg oral; for Cmax / Tmax / AUC(0-t): rat; for AUC(0-t): read-out: AUC (0-7 h). How it is done: Low Level of Compounds is Attributed to Low Intestinal Absorption
In this study, it was determined if the low plasma level of the compounds of the present invention is due to low absorption in the gut, or due to the first pass effect (i.e., absorption followed by a rapid degradation of compounds by liver). Hepatic portal vein cannulated male CD (SD) rats obtained from Charles River Laboratory were utilized. In brief, Compound 20BG was administered orally at 10 mg/kg, and blood was obtained simultaneously from the portal vein and systemic circulation (retro-orbital sinus) at pre-dose, 0.25, 0.5, 1, 2, and 4 hours post-dose, in EDTA coated tubes. The samples were processed into plasma and quantification of compound levels in the plasma was accomplished by means of LC-MS/MS analysis as described in Example 59.

The test system of series [3] is GLP-1 plasma level in DIO mice. In words: GLP-1 levels after multiple days of dosing in DIO mice. As to conditions: 12 days BID oral, in combination with linagliptin, 6 h after final dose. The series is classed as in vivo, mouse. Here is the method: GLP-1 Levels after Multiple Days of Dosing Compounds
Compounds of the present invention were dosed for multiple days and were evaluated to determine if they produce sustained GLP-1 levels. In this example, the protocol from Example 66 was utilized. In week 2 of the study, mice were euthanized and blood was collected 6 hours after the final dose of compound. For the GLP-1 assay, 200-250 μL of blood was placed in an EDTA K^2+ tube containing 5 μL of 40 mg/mL aprotinin (Sigma A1153) and 1 μL of 10 mM sitagliptin (Sigma S8576) and plasma was separated by centrifugation. Plasma samples were stored at −20° C. until analysis. The active form of GLP-1 [GLP-1 (7-36) amide] was analyzed using Meso Scale Discovery System according to the manufacturer's directions (item number K150HYC). Values of p<0.05 are considered statistically significant.

The mark [4] stands for this setting: portal vein plasma, Portal Vein bleed.
Setting [5] is: systemic plasma (retro-orbital sinus), Peripheral bleed (retro-orbital sinus).

In general, EC50 refers to the concentration needed to bring the measured effect to its halfway point. In the case of `CCc1cnccc1-c1cccc(C(C)(C)NS(=O)(=O)c2ccccc2C(F)(F)F)c1` [Compound 5, N-(2-(3-(3-ethylpyridin-4-yl)phenyl)propan-2-yl)-2-(trifluoromethyl)benzenesulfonamide], the EC50 at mouse TGR5 receptor was < 0.1 µM.
The same measure, in the same setting: the value for `Cc1cnccc1-c1cccc(C(C)(C)NS(=O)(=O)c2cccc(C(F)(F)F)c2)c1` [Compound 5AA, N-(2-(3-(3-methylpyridin-4-yl)phenyl)propan-2-yl)-3-(trifluoromethyl)benzenesulfonamide] was < 0.1 µM.
As a reminder, the Cmax is the highest concentration seen after dosing. For orientation: Tmax means the time at which the peak concentration occurs. For `Cc1cnccc1-c1cccc(C(C)(C)N(CCCC(=O)NCCS(=O)(=O)O)S(=O)(=O)c2ccccc2C(F)(F)F)c1` [Compound 20AA, 2-(4-(N-(2-(3-(3-methylpyridin-4-yl)phenyl)propan-2-yl)-2-(trifluoromethyl)phenylsulfonamido)butanamido)ethanesulfonic acid], in series [1], the Cmax amounted to 2.6 nM and the Tmax was found to be 15 min.
Regarding `CCc1cnccc1-c1cccc([C@H](C)N(CCCC(=O)NCCS(=O)(=O)NCC(=O)O)S(=O)(=O)c2ccccc2C(F)(F)F)c1` [Compound 20BG], in series [2], the “absorption (PK in portal vein and systemic circulation)” value was “very low absorption”. In series [2] (setting [4]), the Cmax came out at 7.6 ± 3.6 ng/mL, the Tmax lay within 15 to 120 min and the AUC(0-t) came to 30.1 ± 0.9 ng·h/mL. For the same compound, in series [2] (setting [5]), the Cmax was 1.3 ± 0.7 ng/mL, the Tmax is 15 to 60 min and the AUC(0-t) came out at 3.1 ± 10.8 ng·h/mL. The “GLP-1 plasma level versus vehicle” value in series [3] is listed as “significantly increased”.
